This note sets out measurements from ChEMBL document CHEMBL1932922, “Synthesis, antitubercular evaluation and 3D-QSAR study of N-phenyl-3-(4-fluorophenyl)-4-substituted pyrazole derivatives” (Bioorg Med Chem Lett, 2012).

Structures are written as SMILES. A value given as a limit tells only on which side of the number the result lay.

This experiment deals with Mycobacterium tuberculosis. Nature of the experiment: Antituberculosis activity against Mycobacterium tuberculosis H37Rv ATCC 27294 by modified BACTEC 460 method. Format: functional, organism-based. The conditions noted are these: for IC90 / IC50: Mycobacterium tuberculosis, H37Rv ATCC 27294.

As to `Oc1ccc(-c2cc(-c3cn(-c4ccccc4)nc3-c3ccc(F)cc3)[nH]c(=S)n2)cc1`, the pIC90 was under 3.64 and the IC90 was over 227 µM. For the same compound, under “read-out: IC50”, the IC50 was found to be 69.2 µM. Besides, the IC50 (read-out: pIC50 (converted)) is 69.2 µM.
Compound `Cc1ccc(-c2cc(-c3cn(-c4ccccc4)nc3-c3ccc(F)cc3)[nH]c(=S)n2)cc1` yielded a pIC90 of 4.45 and a concentration for an effect of 90% (IC90) of 35.5 µM. For the same compound, under “read-out: IC50”, the IC50 was found to be 22.2 µM. In addition, under “read-out: pIC50 (converted)”, the IC50 is 22.4 µM.
`Fc1ccc(-c2nn(-c3ccccc3)cc2-c2cc(-c3ccc(Cl)cc3)nc(=S)[nH]2)cc1`: the pIC90 is listed as 4.74 and the IC90 is 18 µM. Under “read-out: IC50”, the IC50 was found to be 10.3 µM. The IC50 (read-out: pIC50 (converted)) was 10.2 µM.
In turn, `Fc1ccc(-c2nn(-c3ccccc3)cc2[C@H]2CC(c3ccc(Br)cc3)=NN2)cc1` yielded a pIC90 of 4.64 and a concentration for an effect of 90% (IC90) of 22.9 µM. Moreover, the IC50 (read-out: IC50) turned out to be 7.9 µM. Further, the IC50 (read-out: pIC50 (converted)) was 7.94 µM.
The like results for `Nc1nc(-c2ccccc2O)cc(-c2cn(-c3ccccc3)nc2-c2ccc(F)cc2)n1` were, in that order, 4.18, 65.9 µM, 57 µM and 57.5 µM.
Regarding `COc1ccc(C2=NN[C@@H](c3cn(-c4ccccc4)nc3-c3ccc(F)cc3)C2)cc1`, the pIC90 came out at 4.91 and the IC90 was determined as 12.3 µM. For the same compound, the IC50 (read-out: IC50) is 0.47 µM. Also, the IC50 (read-out: pIC50 (converted)) was 0.468 µM.
Regarding `Fc1ccc(-c2nn(-c3ccccc3)cc2-c2cc(-c3ccc(Br)cc3)nc(=S)[nH]2)cc1`, the pIC90 is reported as 4.42. Moreover, for the setting “read-out: pIC50 (converted)”, the IC50 was 115 µM.
On to `O=NN1N=C(c2ccc([N+](=O)[O-])cc2)C[C@@H]1c1cn(-c2ccccc2)nc1-c1ccc(F)cc1`, for which the pIC90 was 4.39 and the concentration for an effect of 90% (IC90) came out at 40.5 µM. For the same compound, the IC50 (read-out: IC50) was 25.3 µM. The IC50 (read-out: pIC50 (converted)) was 25.1 µM.
In the same order, the values of `O=C(/C=C/c1cn(-c2ccccc2)nc1-c1ccc(F)cc1)c1ccc([N+](=O)[O-])cc1` are 4.27, 53.5 µM, 12.7 µM and 12.6 µM.
As for `O=NN1N=C(c2cccc([N+](=O)[O-])c2)C[C@@H]1c1cn(-c2ccccc2)nc1-c1ccc(F)cc1`, the pIC90 is given as 4.48 and the IC90 turned out to be 33.4 µM. Further, where the note is “read-out: IC50”, the IC50 came to 22.5 µM. For the same compound, under “read-out: pIC50 (converted)”, the IC50 was 22.4 µM.
Compound `O=NN1N=C(c2ccc(Br)cc2)C[C@@H]1c1cn(-c2ccccc2)nc1-c1ccc(F)cc1` displayed a pIC90 of 4.47 and a 90% effect concentration (IC90) of 33.7 µM. Further, the IC50 (read-out: IC50) worked out at 21.4 µM. For the same compound, the IC50 (read-out: pIC50 (converted)) is 21.4 µM.
`O=[N+]([O-])c1cccc(C2=NN[C@@H](c3cn(-c4ccccc4)nc3-c3ccc(F)cc3)C2)c1` registered a pIC90 of 4.16 and an IC90 of 68.7 µM. Moreover, the IC50 (read-out: IC50) stood at 39 µM. Under “read-out: pIC50 (converted)”, the IC50 was 38.9 µM.
`Nc1nc(-c2ccc(Cl)cc2)cc(-c2cn(-c3ccccc3)nc2-c2ccc(F)cc2)n1` registered a pIC90 of under 3.65 and an IC90 of over 226 µM. For the same compound, where the note is “read-out: IC50”, the IC50 is 95.5 µM. The IC50 (read-out: pIC50 (converted)) is 95.5 µM.
Regarding `Nc1nc(-c2ccc(Br)cc2)cc(-c2cn(-c3ccccc3)nc2-c2ccc(F)cc2)n1`, the pIC90 was 4.84 and the 90% effect level (IC90) was put at 14.5 µM. The IC50 (read-out: IC50) amounted to 10.6 µM. The IC50 (read-out: pIC50 (converted)) is 10.7 µM.
As for `Nc1nc(-c2ccc(O)cc2)cc(-c2cn(-c3ccccc3)nc2-c2ccc(F)cc2)n1`, the pIC90 stood at 6.05 and the IC90 was 0.88 µM. For the same compound, the IC50 (read-out: IC50) was determined as 0.47 µM. Further, where the note is “read-out: pIC50 (converted)”, the IC50 is 0.468 µM.
In turn, `COc1ccc(C(=O)/C=C/c2cn(-c3ccccc3)nc2-c2ccc(F)cc2)cc1` registered a pIC90 of 5 and a 90% effect concentration (IC90) of 10.1 µM. The IC50 (read-out: IC50) stood at 6.39 µM. Moreover, the IC50 (read-out: pIC50 (converted)) is 6.46 µM.
In the same order, the values of `Nc1nc(-c2ccc([N+](=O)[O-])cc2)cc(-c2cn(-c3ccccc3)nc2-c2ccc(F)cc2)n1` are under 3.66, over 220 µM, 75.4 µM and 75.9 µM.
In turn, `Oc1ccccc1-c1cc(-c2cn(-c3ccccc3)nc2-c2ccc(F)cc2)[nH]c(=S)n1` returned a pIC90 of 4.95 and a 90% effect concentration (IC90) of 11.2 µM. The IC50 (read-out: IC50) was 8.29 µM. Further, the IC50 (read-out: pIC50 (converted)) was 8.32 µM.
The like results for `Nc1nc(-c2ccc(F)cc2)cc(-c2cn(-c3ccccc3)nc2-c2ccc(F)cc2)n1` were, in that order, 4.07, 84.3 µM, 36.8 µM and 37.2 µM.
The like results for `Cc1ccc(C2=NN(C(=O)c3ccccc3)[C@@H](c3cn(-c4ccccc4)nc3-c3ccc(F)cc3)C2)cc1` were, in that order, 5.46, 3.48 µM, 3.02 µM and 3.02 µM.
In the same order, the values of `O=NN1N=C(c2cccs2)C[C@@H]1c1cn(-c2ccccc2)nc1-c1ccc(F)cc1` are 4.33, 46.3 µM, 26.4 µM and 26.3 µM.
In the case of `O=C(/C=C/c1cn(-c2ccccc2)nc1-c1ccc(F)cc1)c1ccccc1O`, the pIC90 came out at 4.34 and the concentration for an effect of 90% (IC90) stood at 45.4 µM. Further, the IC50 (read-out: IC50) worked out at 26.2 µM. Moreover, for the setting “read-out: pIC50 (converted)”, the IC50 is 26.3 µM.
The like results for `O=C(/C=C/c1cn(-c2ccccc2)nc1-c1ccc(F)cc1)c1ccccc1` were, in that order, 4.79, 16.3 µM, 10.5 µM and 10.5 µM.
The like results for `O=C(/C=C/c1cn(-c2ccccc2)nc1-c1ccc(F)cc1)c1ccc(F)cc1` were, in that order, 5.09, 8.09 µM, 7.14 µM and 7.08 µM.
The compound `O=[N+]([O-])c1ccc(-c2cc(-c3cn(-c4ccccc4)nc3-c3ccc(F)cc3)[nH]c(=S)n2)cc1` showed a pIC90 of 4.88 and an IC90 of 13.1 µM. Further, where the note is “read-out: IC50”, the IC50 came out at 12.2 µM. Further, the IC50 (read-out: pIC50 (converted)) is 12 µM.
In the same order, the values of `O=C(/C=C/c1cn(-c2ccccc2)nc1-c1ccc(F)cc1)c1cccs1` are 4.87, 13.5 µM, 8.08 µM and 8.13 µM.
For the compound `Cc1ccc(C2=NN[C@@H](c3cn(-c4ccccc4)nc3-c3ccc(F)cc3)C2)cc1`, the pIC90 came to 5.39. Also, the IC50 (read-out: pIC50 (converted)) is 5.37 µM.
`O=C(c1ccccc1)N1N=C(c2ccc(Br)cc2)C[C@@H]1c1cn(-c2ccccc2)nc1-c1ccc(F)cc1`: the pIC90 is 4.12 and the IC90 is 75.7 µM. Besides, the IC50 (read-out: IC50) came out at 37.8 µM. Also, the IC50 (read-out: pIC50 (converted)) was 38 µM.
In the same order, the values of `COc1ccc(C2=NN(C(=O)c3ccccc3)[C@@H](c3cn(-c4ccccc4)nc3-c3ccc(F)cc3)C2)cc1` are 4.62, 23.8 µM, 13.8 µM and 13.8 µM.
The like results for `Oc1ccc(C2=NN[C@@H](c3cn(-c4ccccc4)nc3-c3ccc(F)cc3)C2)cc1` were, in that order, 4.3, 49.8 µM, 31 µM and 30.9 µM.
In the same order, the values of `Fc1ccc(-c2nn(-c3ccccc3)cc2-c2cc(-c3cccs3)nc(=S)[nH]2)cc1` are 4.06, 86.4 µM, 22.6 µM and 22.4 µM.
`Nc1ccc(-c2cc(-c3cn(-c4ccccc4)nc3-c3ccc(F)cc3)[nH]c(=S)n2)cc1` registered a pIC90 of under 3.64 and an IC90 of over 228 µM. Besides, where the note is “read-out: IC50”, the IC50 came out at 22.1 µM. In addition, the IC50 (read-out: pIC50 (converted)) was 21.9 µM.
The like results for `O=C(c1ccccc1)N1N=C(c2ccc(F)cc2)C[C@@H]1c1cn(-c2ccccc2)nc1-c1ccc(F)cc1` were, in that order, 5.49, 3.22 µM, 2.65 µM and 2.63 µM.
In the same order, the values of `O=NN1N=C(c2ccccc2O)C[C@@H]1c1cn(-c2ccccc2)nc1-c1ccc(F)cc1` are under 3.63, over 234 µM, 119 µM and 117 µM.
With `O=C(/C=C/c1cn(-c2ccccc2)nc1-c1ccc(F)cc1)c1ccc(Cl)cc1`, the pIC90 was 4.15 and the concentration for an effect of 90% (IC90) is 71.3 µM. For the same compound, the IC50 (read-out: IC50) is 33.9 µM. For the same compound, the IC50 (read-out: pIC50 (converted)) was 33.9 µM.
For `O=C(c1ccccc1)N1N=C(c2ccc(Cl)cc2)C[C@@H]1c1cn(-c2ccccc2)nc1-c1ccc(F)cc1`, the pIC90 was under 3.72 and the IC90 was over 192 µM. Besides, the IC50 (read-out: IC50) turned out to be 51.4 µM. Besides, the IC50 (read-out: pIC50 (converted)) is 51.3 µM.
For the compound `Nc1ccc(-c2cc(-c3cn(-c4ccccc4)nc3-c3ccc(F)cc3)nc(N)n2)cc1`, the pIC90 was found to be 4.82 and the 90% effect concentration (IC90) was found to be 15 µM. Besides, where the note is “read-out: IC50”, the IC50 is 13.8 µM. Besides, the IC50 (read-out: pIC50 (converted)) was 13.8 µM.
Compound `O=C(c1ccccc1)N1N=C(c2ccccc2)C[C@@H]1c1cn(-c2ccccc2)nc1-c1ccc(F)cc1` came in with a pIC90 of 4.06 and a concentration for an effect of 90% (IC90) of 86.4 µM. For the same compound, the IC50 (read-out: IC50) was found to be 50.4 µM. For the same compound, the IC50 (read-out: pIC50 (converted)) was 50.1 µM.
In the same order, the values of `O=C(c1ccccc1)N1N=C(c2ccc([N+](=O)[O-])cc2)C[C@@H]1c1cn(-c2ccccc2)nc1-c1ccc(F)cc1` are under 3.73, over 187 µM, 57.4 µM and 57.5 µM.
Compound `Nc1nc(-c2ccccc2)cc(-c2cn(-c3ccccc3)nc2-c2ccc(F)cc2)n1` returned a pIC90 of 5 and a 90% effect concentration (IC90) of 9.94 µM. In addition, the IC50 (read-out: IC50) is 5.94 µM. For the same compound, the IC50 (read-out: pIC50 (converted)) is 5.89 µM.
In the same order, the values of `O=C(c1ccccc1)N1N=C(c2cccc([N+](=O)[O-])c2)C[C@@H]1c1cn(-c2ccccc2)nc1-c1ccc(F)cc1` are 3.99, 101 µM, 42.4 µM and 42.7 µM.
